Earlier results as cited in patent publication US20250169531A1 (priority 2023, published 2025).

Conditions: at 25° C.

Question: Which “pka of the nitrogen of the pyridine ring” value does the source give for `CN1CCCC1c1cccnc1` (stereo not shown) [Nicotine] here?
Answer: The value was 3.41.
